Consider ten compounds from ChEMBL document CHEMBL2439974, “Design and Synthesis of 4-(4-Benzoylaminophenoxy)phenol Derivatives As Androgen Receptor Antagonists” (ACS Med Chem Lett, 2013).

The source made the active and inactive calls. No cut-off for these calls is given here. Bounds are passed on as bounds.

Experiment [1] deals with T1, Androgen receptor (Homo sapiens, UniProt P10275).
T1 sequence (P10275 whole entry): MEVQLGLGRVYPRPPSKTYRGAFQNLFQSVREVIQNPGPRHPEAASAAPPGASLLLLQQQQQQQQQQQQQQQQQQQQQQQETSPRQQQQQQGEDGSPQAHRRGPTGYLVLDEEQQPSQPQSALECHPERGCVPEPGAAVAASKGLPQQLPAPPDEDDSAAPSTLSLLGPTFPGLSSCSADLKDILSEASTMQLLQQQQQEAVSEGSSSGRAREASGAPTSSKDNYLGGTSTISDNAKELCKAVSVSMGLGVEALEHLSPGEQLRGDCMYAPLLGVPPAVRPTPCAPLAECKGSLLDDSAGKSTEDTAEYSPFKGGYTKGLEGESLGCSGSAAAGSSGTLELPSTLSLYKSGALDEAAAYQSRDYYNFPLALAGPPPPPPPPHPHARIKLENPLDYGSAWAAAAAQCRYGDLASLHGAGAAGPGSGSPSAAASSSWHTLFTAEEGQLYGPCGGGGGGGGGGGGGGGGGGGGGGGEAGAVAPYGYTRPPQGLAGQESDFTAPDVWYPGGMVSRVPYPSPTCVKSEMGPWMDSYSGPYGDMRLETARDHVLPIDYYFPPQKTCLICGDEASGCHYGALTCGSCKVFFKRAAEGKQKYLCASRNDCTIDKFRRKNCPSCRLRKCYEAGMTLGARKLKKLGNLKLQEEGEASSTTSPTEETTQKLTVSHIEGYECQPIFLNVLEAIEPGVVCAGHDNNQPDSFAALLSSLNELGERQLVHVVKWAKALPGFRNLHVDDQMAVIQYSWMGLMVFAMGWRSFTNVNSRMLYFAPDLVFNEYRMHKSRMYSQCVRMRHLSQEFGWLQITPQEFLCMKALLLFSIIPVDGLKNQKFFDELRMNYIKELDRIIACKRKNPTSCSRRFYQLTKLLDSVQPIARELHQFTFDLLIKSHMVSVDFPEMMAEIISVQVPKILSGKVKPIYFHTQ
Nature of the experiment: Displacement of [3H]-DHT from human GST-tagged androgen receptor LBD (627 to 919) expressed in Escherichia coli HB-101 after 15 hrs by liquid scintillation counting analysis. On the technique in general: In a radioligand displacement assay an active substance lowers the binding of a labelled ligand.

The test system of experiment [2] is PC-3. Nature of the experiment: Cytotoxicity against human PC3 cells assessed as growth inhibition after 3 days by WST-8 assay. The class given is functional, cell-based. The settings on record: PC-3, 72 h.
The target in experiment [3] is T2, Androgen receptor (Homo sapiens) (UniProt P10275).
T2 sequence (whole entry): T1 sequence (P10275 whole entry)
Nature of the experiment: Antagonist activity at androgen receptor in human MDA-kb2 cells assessed as inhibition of DHT-induced luciferase activity at 10 uM after 24 hrs by chemiluminescence assay relative to control. The class given is cell-based.

Experiment [4] has as its target Androgen receptor (Mus musculus) (UniProt P19091). As to the kind of experiment: Antagonist activity at androgen receptor in mouse SC3 cells assessed as inhibition of DHT-induced cell growth at 10 uM after 3 days by CCK-8/WST-8 assay relative to control. The class given is cell-based. Particulars: SC-3.

Sequence of Androgen receptor (Mus musculus) (P19091 whole entry): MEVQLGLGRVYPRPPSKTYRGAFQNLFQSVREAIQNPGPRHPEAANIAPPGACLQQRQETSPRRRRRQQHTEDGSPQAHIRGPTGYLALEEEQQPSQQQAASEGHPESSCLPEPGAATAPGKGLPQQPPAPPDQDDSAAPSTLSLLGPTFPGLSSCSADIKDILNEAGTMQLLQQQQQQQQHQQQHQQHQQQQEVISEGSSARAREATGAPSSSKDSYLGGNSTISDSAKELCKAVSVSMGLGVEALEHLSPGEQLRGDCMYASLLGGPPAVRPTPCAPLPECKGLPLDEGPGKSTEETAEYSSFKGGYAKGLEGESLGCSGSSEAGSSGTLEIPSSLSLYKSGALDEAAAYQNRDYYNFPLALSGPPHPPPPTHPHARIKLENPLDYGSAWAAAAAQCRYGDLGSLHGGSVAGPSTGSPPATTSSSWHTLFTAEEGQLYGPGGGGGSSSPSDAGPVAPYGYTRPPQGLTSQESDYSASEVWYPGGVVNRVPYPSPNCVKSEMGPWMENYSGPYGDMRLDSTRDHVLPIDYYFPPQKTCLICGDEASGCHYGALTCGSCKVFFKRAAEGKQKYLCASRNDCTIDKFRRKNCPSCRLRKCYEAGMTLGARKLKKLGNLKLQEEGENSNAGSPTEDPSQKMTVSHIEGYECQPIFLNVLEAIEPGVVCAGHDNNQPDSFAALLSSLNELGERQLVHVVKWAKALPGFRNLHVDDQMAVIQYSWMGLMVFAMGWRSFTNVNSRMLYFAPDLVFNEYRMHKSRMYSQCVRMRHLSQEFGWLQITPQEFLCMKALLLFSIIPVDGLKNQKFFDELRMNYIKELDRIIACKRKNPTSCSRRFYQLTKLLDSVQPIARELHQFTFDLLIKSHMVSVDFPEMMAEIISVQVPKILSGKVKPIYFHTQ

Broadly, the IC50 is the point on the concentration scale where inhibition reaches its midpoint. In general, inhibition refers to the share of the control response that was lost under treatment. For the compound `COc1cccc(C(=O)Nc2cc(C)c(Oc3ccc(O)cc3)c(C)c2)c1`, the IC50 in experiment [1] was 5.4 µM; in experiment [2] it was above 10 µM. For the same compound, the inhibition in experiment [3] stood at 69%.
Compound `COc1cccc(C(=O)Nc2cnc(Oc3ccc(O)cc3)nc2)c1` returned an IC50 in experiment [1] above 10 µM. Further, the inhibition result in experiment [3] was “inactive”.
With `CC(C)(O)C(=O)Nc1ccc([N+](=O)[O-])c(C(F)(F)F)c1`, in experiment [3], the inhibition was 60%.
As to `O=C(Nc1ccc(Oc2ccc(O)cc2)cc1)c1cccc(O)c1`, the “growth inhibition (GI)” value in experiment [4] is “inactive”.
As to `CC(O)(CS(=O)(=O)c1ccc(F)cc1)C(=O)Nc1ccc(C#N)c(C(F)(F)F)c1` (stereo not drawn) [BICALUTAMIDE], the IC50 in experiment [2] is above 10 µM.
Regarding `COc1cccc(C(=O)Nc2ccc(Oc3ccc(O)cc3)c(C)c2)c1`, the IC50 in experiment [1] was 9.2 µM; in experiment [2], 5.7 µM. Further, the inhibition in experiment [3] stood at 66%.
Taken in the same sequence, the figures for `COc1cccc(C(=O)Nc2ccc(Oc3ccc(O)cc3)cc2)c1` were 20 µM, 5.6 µM and 6%.
Take `O=C(Nc1ccc(Oc2ccccc2)cc1)c1ccccc1`: in experiment [4], the growth inhibition (GI) was 20%.
In experiment [1], `COc1cccc(C(=O)Nc2ccc(Oc3ccc(O)cc3)nc2)c1` returned an IC50 above 10 µM. Also, in experiment [3], the inhibition entry was “inactive”.
Turning to `O=C(Nc1ccc(Oc2ccc(O)cc2)cc1)c1ccc(O)cc1`, the “growth inhibition (GI)” value in experiment [4] is “inactive”.
